Read-outs that look alike come from different tables or passages of the source.
Tests used:
ER = biological target: T1, ER (Homo sapiens, UniProt P03372); test: Degradation activities on ER (ELISA) in T47D breast cancer cells; assay type: cell-based; settings: T47D cells, 24 h, ELISA; for DC50: concentration required to degrade 50% of the target protein; for Dmax: maximum percentage of target protein degraded
T1 construct: T47D breast cancer cells were subcultured in cell culture medium; endogenous in cells; host or cells: T47D breast cancer cells
T1 sequence (P03372 1-595): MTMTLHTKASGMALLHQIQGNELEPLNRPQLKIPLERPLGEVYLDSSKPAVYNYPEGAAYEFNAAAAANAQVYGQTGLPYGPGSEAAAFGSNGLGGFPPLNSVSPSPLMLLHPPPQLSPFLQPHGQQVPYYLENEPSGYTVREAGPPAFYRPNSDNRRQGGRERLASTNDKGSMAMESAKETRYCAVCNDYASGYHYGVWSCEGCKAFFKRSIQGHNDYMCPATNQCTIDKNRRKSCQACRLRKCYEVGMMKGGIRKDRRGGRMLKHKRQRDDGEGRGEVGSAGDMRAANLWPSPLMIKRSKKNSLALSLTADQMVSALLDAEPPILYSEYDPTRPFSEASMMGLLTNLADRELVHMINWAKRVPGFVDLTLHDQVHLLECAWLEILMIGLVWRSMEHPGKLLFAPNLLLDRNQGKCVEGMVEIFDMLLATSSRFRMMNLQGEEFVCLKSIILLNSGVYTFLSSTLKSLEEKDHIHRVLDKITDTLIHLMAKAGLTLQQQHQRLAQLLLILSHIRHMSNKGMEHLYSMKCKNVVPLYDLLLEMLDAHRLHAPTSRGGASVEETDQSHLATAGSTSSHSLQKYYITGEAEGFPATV
Description: T47D breast cancer cells were subcultured in cell culture medium, and then the cells in good growth condition were seeded into 96-well plates at 80 µL/well, with 2.5×10^4 cells per well. The cells were incubated in a 37° C., 5% CO2 incubator for 3 days. The drug was prepared into a 10 mM stock solution with dimethyl sulfoxide (DMSO). Prior to use, the stock solution was diluted with cell culture medium to obtain six final concentrations (100 nM, 25 nM, 6.25 nM, 1.56 nM, 0.39 nM, and […]), and gently mixed. Additionally, negative control wells (only containing culture medium) and positive control wells (only containing cells and DMSO) were included. After the cells were incubated in the incubator for 24 h, the cells were rinsed once with ice-cold 1×PBS. […] The plate was sealed with plastic film, and incubated in a 37° C. incubator for 2 h. The film was removed. 200 μL of 1× washing buffer was added to each well, and then the plate was shaken for 5 min. The washing buffer was discarded, and the plate was pat-dried. The plate was washed four times. 100 μL of freshly prepared detection antibody (green) was added to each well of the ELISA plate. The plate was sealed with plastic film, and then incubated in a 37° C. incubator for 1 h. The film was removed, and the detection antibody was discarded. The plate was pat-dried. 200 μL of 1× washing buffer was added to each well, and then the plate was shaken for 5 min. The washing buffer was discarded, and the plate was pat-dried. The plate was washed four times. 100 μL of freshly prepared HRP-labeled secondary antibody (red) was added to each well of the ELISA plate. The plate was sealed with plastic film, and incubated in a 37° C. incubator for 30 min. The film was removed, the secondary antibody was discarded, and the plate was pat-dried, followed by adding 200 μL of 1× washing buffer to each well. The plate was shaken for 5 min, and the washing buffer was discarded before pat-drying the plate. The plate was washed four times. 100 μl of TMB substrate was added to each well of the ELISA plate, followed by incubating in a 37° C. incubator for 5 min. 100 μL of STOP solution was added to each well of the ELISA plate, and the plate was gently shaken for a few seconds. The bottom of each well was wiped with lint-free cloth. Within 30 min after adding the STOP solution, the absorbance was read at 450 nm. […] The data were analyzed using the Dose-response equation in GraphPad Prism8 software to obtain the DC50 and Dmax values, and both of them are important indicators for measuring the degradation activities of compounds on target proteins. […] The Dmax value represents the maximum percentage of target protein that can be degraded by the compound.

[1] = tested on: MCF-7 breast cancer cells; test: Inhibition of proliferation of MCF-7 breast cancer cells (agarose culture, CellTiter-Glo 3D); assay type: cell-based; settings: MCF-7 cells, 15 days of cultivation, read-out: IC50
Description: After 1.6% agarose and 0.7% agarose were sterilized at high temperature, they were cooled to around 50° C., and placed in a 42° C. water bath for later use. MCF-7 breast cancer cells were subcultured in complete cell culture medium, and cells in good growth condition were digested and counted for future use. 50 µL of 1.6% agarose mixed with 2× culture medium at a ratio of 1:1 was spread into the bottom of 96-well plate, and allowed to cool and solidify. 0.7% agarose was mixed with diluted cell suspension in a ratio of 1:1, and then 50 µL of the mixture of gel and cells was added to each well, with 2000 cells for each well; the mixture was allowed to cool and solidify at room temperature. 50 μL of culture medium was added to the plate containing cells, and the plate was placed in a 37° C., 5% CO2 incubator and cultured for 24 h. The drug was prepared into 10 mM stock solution with dimethyl sulfoxide (DMSO). The stock solution was diluted in a ratio of 1:3, to obtain 9 concentration gradients. Then, each concentration of compound solution was further diluted with culture medium in 1:250 (to ensure a DMSO concentration of 0.1% in the culture system). Two replicate wells was set for each concentration. 50 μL of the diluted compound solution was added to the cell culture wells (with final concentrations of 10 μM, 3.3 μM, 1.1 μM, 0.37 μM . . . ). The plate was gently shaken for mixing. Additionally, 3 negative control wells only containing cells and 3 blank control wells only containing culture medium were set up (each of the 6 wells was added with 50 μL of DMSO diluted with culture medium in a ration of 1:250). After 15 days of cultivation, the cell plates and CellTiter-Glo 3D Cell Viability were taken out and equilibrated to room temperature in advance. 80 μL of culture medium were aspirated and discarded from the cell plate, and 120 µL of CellTiter-Glo 3D Cell Viability solution was added to each well. The plates were centrifuged at 1200 rpm/min for 5 min, and then placed in the dark and kept for 25 min. The […] were measured using a multi-function microplate reader. The data were analyzed using the Dose-response-inhibition equation in GraphPad Prism8 software, and the IC50 values were obtained, as shown in Table 3.

SMILES | DC50 (ER) [µM] | Dmax (ER) | IC50 [1] [µM] | Dmax (ER; read-out: Dmax) [%] | IC50 ([1]; Homo sapiens, MCF7, 360 h) [µM]
O=C1CCC(N2Cc3cc(N4CC5(CCN(CC6CCN(c7ccc([C@H]8c9ccc(O)cc9OC[C@H]8c8ccccc8F)cc7F)CC6)CC5)C4)ccc3C2=O)C(=O)N1 (relative stereo) [Example 87, 3-(5-(7-((1-(2-fluoro-4-(cis-3-(2-fluorophenyl)-7-hydroxybenzopyran-4-yl)phenyl)piperidin-4-yl)methyl)-2,7-diazaspiro[3.5]nonane-2-yl)-1-oxoisoinodolin-2-yl)piperidin-2,6-dione] | < 0.01 | B (B: 75-50%) | < 0.01 |  | 
O=C1CCC(N2Cc3cc(N4CC5(CCN(CC6CCN(c7ccc([C@@H]8c9ccc(O)cc9OC[C@@H]8c8ccc(F)cc8)cc7)CC6)CC5)C4)ccc3C2=O)C(=O)N1 (stereo partly drawn) [Example 9, 3-(5-(7-((1-(4-(cis-3-(4-fluorophenyl)-7-hydroxyltryptophane-4-yl)phenyl)piperidin-4-yl)methyl)-2,7-diazaspiro[3.5]nonane-2-yl)-1-oxoisoinodolin-2-yl)piperidin-2,6-dione] | < 0.01 |  |  | 50 to 75 | 0.011 to 0.05
O=C1CCC(N2Cc3cc(N4CCC(N5CC6(CCN(c7ccc([C@@H]8c9ccc(O)cc9OC[C@@H]8c8ccccc8F)cc7)CC6)C5)CC4)ccc3C2=O)C(=O)N1 (stereo partly drawn) [Example 14, 3-(5-(4-(7-(4-((3S, 4R)-3-(2-fluorophenyl)-7-hydroxychroman-4-yl)phenyl)-2,7-diazaspiro[3.5]nonane-2-yl)piperidin-1-yl)-1-oxoisoinodolin-2-yl)pyridine-2,6-dione] | < 0.01 |  |  | > 75 | < 0.01
O=C1CCC(N2Cc3cc(N4CC5(CCN(CC6CCN(c7ccc([C@@H]8c9ccc(O)cc9OC[C@@H]8c8cccc(F)c8F)cc7F)CC6)CC5)C4)ccc3C2=O)C(=O)N1 (stereo partly drawn) [Example 16, 3-(5-(7-((1-(4-((3S, 4R)-3-(2,3-difluorophenyl)-7-hydroxychroman-4-yl)-2-fluorophenyl)piperidin-4-yl)methyl)-2,7-diazaspiro[3.5]nonane-2-yl)-1-oxoisoinodolin-2-yl)piperidin-2,6-dione] | < 0.01 |  |  | 50 to 75 | < 0.01
CC(C)C[C@H]1COc2cc(O)ccc2[C@H]1c1cc(F)c(N2CCC(CN3CCC4(CC3)CN(c3ccc5c(c3)CN(C3CCC(=O)NC3=O)C5=O)C4)CC2)c(F)c1 (stereo partly drawn) [Example 17, 3-(5-(7-((1-(2,6-difluoro-4-(cis-7-hydroxyl-3-isobutylchroman-4-yl)phenyl)piperidin-4-yl)methyl)-2,7-diazaspiro[3.5]nonane-2-yl)-1-oxoisoinodolin-2-yl)piperidin-2,6-dione] | < 0.01 |  |  | 50 to 75 | 0.011 to 0.05
O=C1CCC(N2Cc3cc(N4CC5(CCN(CC6CCN(c7ccc(C8=C(c9c(F)cccc9F)COc9cc(O)ccc98)cc7)CC6)CC5)C4)ccc3C2=O)C(=O)N1 (centres unmarked) [Example 18, 3-(5-(7-((1-(4-(3-(2,6-difluorophenyl)-7-hydroxyl-2H-chromene-4-yl)phenyl)piperidin-4-yl)methyl)-2,7-diazaspiro[3.5]nonane-2-yl)-1-oxoisoinodolin-2-yl)piperidin-2,6-dione] | < 0.01 | A (A: >75%) | < 0.01 |  | 
O=C1CCC(N2Cc3cc(N4CCC(N5CC6(CCN(c7ccc([C@@H]8c9ccc(O)cc9CC[C@@H]8c8ccccc8F)cc7)CC6)C5)CC4)ccc3C2=O)C(=O)N1 (stereo partly drawn) [Example 22, 3-(5-(4-(7-(4-((1R,2S)-2-(2-fluorophenyl)-6-hydroxyl-1,2,3,4-tetrahydronaphthalen-1-yl)phenyl)-2,7-diazaspiro[3.5]nonane-2-yl)piperidin-1-yl)-1-oxoisoinodolin-2-yl)piperidin-2,6-dione] | < 0.01 |  |  |  | < 0.01
O=C1CCC(N2Cc3cc(N4CC5(CCN(CC6CCN(c7c(F)cc([C@@H]8c9ccc(O)cc9OC[C@@H]8c8c(F)cccc8F)cc7F)CC6)CC5)C4)ccc3C2=O)C(=O)N1 (some centres unmarked) [Example 40] | < 0.01 |  |  |  | < 0.01
O=C1CCC(N2Cc3cc(N4CC5(CCN(CC6CCN(c7c(F)cc(C8=C(c9c(F)cccc9F)COc9cc(O)ccc98)cc7F)CC6)CC5)C4)ccc3C2=O)C(=O)N1 (centres unmarked) [Example 42] | < 0.01 |  |  | 50 to 75 | 0.011 to 0.05
O=C1CC[C@@H](N2Cc3cc(N4CC5(CCN(CC6CCN(c7c(F)cc([C@@H]8c9ccc(O)cc9OC[C@@H]8c8c(F)cccc8F)cc7F)CC6)CC5)C4)ccc3C2=O)C(=O)N1 [Example 44] | > 0.1 |  |  | < 50 | > 0.05
O=C1CC[C@H](N2Cc3cc(N4CC5(CCN(CC6CCN(c7c(F)cc([C@@H]8c9ccc(O)cc9OC[C@@H]8c8c(F)cccc8F)cc7F)CC6)CC5)C4)ccc3C2=O)C(=O)N1 [Example 45] | < 0.01 |  |  | > 75 | < 0.01
O=C1CCC(N2Cc3cc(N4CC5(CCN(CC6CCN(c7c(F)cc([C@@H]8c9ccc(O)cc9OC[C@@H]8c8cccc(F)c8F)cc7F)CC6)CC5)C4)ccc3C2=O)C(=O)N1 (stereo partly drawn) [Example 49, 3-(5-(7-((1-(4-((3S, 4R)-3-(2,3-difluorophenyl)-7-hydroxychroman-4-yl)-2,6-difluorophenyl)piperidin-4-yl)methyl)-2,7-diazaspiro[3.5]nonane-2-yl)-1-oxoisoinodolin-2-yl)piperidin-2,6-one] | < 0.01 |  |  |  | < 0.01
O=C1CCC(N2Cc3cc(N4CC5(CCN(CC6CCN(c7c(F)cc([C@@H]8c9ccc(O)cc9OC[C@@H]8c8ccccc8F)cc7F)CC6)CC5)C4)ccc3C2=O)C(=O)N1 (stereo partly drawn) [Example 50, 3-(5-(7-((1-(4-((3S,4R)-3-(2-fluorophenyl)-7-hydroxychroman-4-yl)-2,6-difluorophenyl)piperidin-4-yl)methyl)-2,7-diazaspiro[3.5]nonane-2-yl)-1-oxoisoinodolin-2-yl)piperidin-2,6-one] | < 0.01 |  | < 0.01 |  | 

From patent US20260258039A1, “AROMATIC COMPOUND, METHOD FOR PREPARING SAME, AND USE THEREOF IN PREPARATION OF ESTROGEN RECEPTOR DEGRADER” (Hinova Pharmaceuticals Inc., priority 2022, published 2026)
